Laboratory results as given in publication PMC3265452 (PLoS Neglected Tropical Diseases, 2012).
Counter-ions that a name gives are not always drawn.

Each compound was assayed against AaDOP2 (Aedes aegypti, UniProt H6D5H2) (assay: AaDOP2 antagonist screen of the LOPAC1280 library (HEK-CRELuc-Aadop2 cells, luminescence)). Conditions: not given.
Format: cell-based

Sequence of AaDOP2 (H6D5H2 1-476): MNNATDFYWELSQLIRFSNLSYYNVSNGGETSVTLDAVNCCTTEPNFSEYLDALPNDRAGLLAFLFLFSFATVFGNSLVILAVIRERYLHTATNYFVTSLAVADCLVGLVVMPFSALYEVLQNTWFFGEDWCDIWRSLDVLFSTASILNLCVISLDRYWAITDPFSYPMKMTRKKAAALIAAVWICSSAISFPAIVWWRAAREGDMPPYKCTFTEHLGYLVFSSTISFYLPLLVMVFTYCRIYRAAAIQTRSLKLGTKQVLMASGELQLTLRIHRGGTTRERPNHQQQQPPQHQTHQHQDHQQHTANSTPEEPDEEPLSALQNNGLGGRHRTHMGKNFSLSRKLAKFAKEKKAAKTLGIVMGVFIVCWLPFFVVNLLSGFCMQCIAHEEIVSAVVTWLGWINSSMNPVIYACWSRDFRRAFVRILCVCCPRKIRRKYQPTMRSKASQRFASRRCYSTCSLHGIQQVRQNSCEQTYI

| Structure (SMILES) | Compound effect (percent receptor signaling in presence of test compound, relative lux units relative to the SCH23390 control) | % of the SCH23390 effect (percent inhibition of receptor response relative to the SCH23390 control) |
| --- | --- | --- |
| N#C/C(=C\c1c[nH]c2ccccc12)C(=O)c1ccc(O)c(O)c1 [Compound 1182, Tyrphostin AG 808] | 101 | – |
| Nc1nc2c(ncn2COCCO)c(=O)[nH]1 [Compound 52, Acyclovir] | 90 | – |
| Cc1cnc(C(=O)NCCc2ccc(S(=O)(=O)NC(=O)NC3CCCCC3)cc2)cn1 [Compound 567, Glipizide] | 103 | – |
| CC1(C)CCC(NC(=O)[C@@H](N)CCC(=O)O)CC1 [Compound 843, CR 2249] | 92 | – |
| CN1C(C)(C)CCCC1(C)C [Compound 950, Pempidine tartrate] | 100 | – |
| Oc1cc2c(cc1O)CN(C(=S)NCCc1ccc(Cl)cc1)CCC2 [Compound 342, Capsazepine] | 69 | – |
| OC(CCN1CCCCC1)(c1ccccc1)C1CCCCC1 (centres unmarked) [Compound 1153, Trihexyphenidyl hydrochloride] | 92 | – |
| CCCN(CCC)CCc1cccc2c1CC(=O)N2 [Compound 1047, Ropinirole hydrochloride] | 103 | – |
| CC1CN(S(=O)(=O)c2cccc3cnccc23)CCN1.Cl.Cl (centres unmarked) [Compound 651, 1-(5-Isoquinolinylsulfonyl)-3-methylpiperazine dihydrochloride] | 100 | – |
| CCCCCCCCCCCCCCCC(=O)NCC(COP(=O)([O-])OCC[N+](C)(C)C)OCC (racemic) [Compound 488, rac-2-Ethoxy-3-hexadecanamido-1-propylphosphocholine] | 42 | – |
| C#CCN(C)CCCOc1ccc(Cl)cc1Cl [Compound 763, Clorgyline hydrochloride] | 96 | – |
| Nc1nc(N)c2nc(CNc3ccc(C(=O)N[C@@H](CCC(=O)O)C(=O)O)cc3)cnc2n1 [Compound 28, Aminopterin] | 112 | – |
| O=[N+]([O-])c1ccc(CSc2ncnc3c2ncn3[C@@H]2O[C@H](CO)[C@@H](O)[C@H]2O)cc1 [Compound 844, S-(4-Nitrobenzyl)-6-thioinosine] | 93 | – |
| CCCCCCCCCCCCC/C=C/[C@@H](O)[C@@H](N)CO [Compound 1105, Sphingosine] | 106 | – |
| NCCCNCCCCNCCCN [Compound 1092, Spermine tetrahydrochloride] | 88 | – |
| Nc1nc(Cl)nc2c1ncn2[C@@H]1O[C@H](COP(=O)([O-])OP(=O)([O-])OP(=O)([O-])[O-])[C@@H](O)[C@H]1O.[Na+].[Na+].[Na+].[Na+] [Compound 340, 2-Chloroadenosine triphosphate tetrasodium] | 102 | – |
| CC(=O)c1c(O)c(C)c(O)c(Cc2c(O)c3c(c(C(=O)/C=C/c4ccccc4)c2O)OC(C)(C)C=C3)c1O [Compound 1050, Rottlerin] | 35 | – |
| O=P1(N(CCCl)CCCl)NCCCO1 (centres unmarked) [Compound 224, Cyclophosphamide monohydrate] | 83 | – |
| O=C(O)C1=CCCNC1 [Compound 562, Guvacine hydrochloride] | 94 | – |
| CC(C)(C)c1cc(/C=C(\C#N)C(N)=S)cc(C(C)(C)C)c1O [Compound 1158, Tyrphostin AG 879] | 33 | – |
| CC(C)(C)NCC(O)c1ccc(O)c(CO)c1 (centres unmarked) [Compound 1117, Salbutamol] | 107 | – |

| Structure (SMILES) | Compound effect (percent receptor signaling in presence of test compound, relative lux units relative to the SCH23390 control) | % of the SCH23390 effect (percent inhibition of receptor response relative to the SCH23390 control) |
| --- | --- | --- |
| NCCSSCCN [Compound 294, Cystamine dihydrochloride] | 84 | – |
| CC(C)[N+](C)(CCOC(=O)C1c2ccccc2Oc2ccccc21)C(C)C [Compound 990, Propantheline bromide] | 71 | – |
| CCCN(CCC)[C@@H]1CCc2c(F)ccc(O)c2C1.Cl [Compound 1245, R(+)-UH-301 hydrochloride] | 97 | – |
| CC(N)(Cc1ccc(O)cc1)C(=O)O (racemic) [Compound 1, DL-alpha-Methyl-p-tyrosine] | 95 | – |
| O=C(CCc1ccc(O)cc1)c1c(O)cc(O)cc1O [Compound 974, Phloretin] | 99 | – |
| CN([C@@H](Cc1ccc(OS(=O)(=O)c2cccc3cnccc23)cc1)C(=O)N1CCN(c2ccccc2)CC1)S(=O)(=O)c1cccc2cnccc12 [Compound 638, KN-62] | 104 | – |
| Cl.NNC(N)=O [Compound 1086, Semicarbazide hydrochloride] | 107 | – |
| C[C@@H]1O[C@@H]1P(=O)(O)O [Compound 952, Phosphomycin disodium] | 104 | – |
| Cc1ccc2c(c1)C(N1CCN(C)CC1)=Nc1cccnc1N2 [Compound 681, JL-18] | 2 | 98% |
| Nc1nc2[nH]c(=O)cnc2c(=O)[nH]1 [Compound 656, Isoxanthopterin] | 106 | – |
| C[N+](C)(C)CCOC(=O)CCC(=O)OCC[N+](C)(C)C [Compound 1116, Succinylcholine chloride] | 94 | – |
| CCOC(=O)[C@]12CC1/C(=N\O)c1ccccc1O2 (mixture of isomers) [Compound 318, CPCCOEt] | 58 | – |
| CC(C)C[C@H](NC(=O)[C@H](O)[C@H](N)Cc1ccccc1)C(=O)O [Compound 471, Epibestatin hydrochloride] | 107 | – |
| O=c1[nH]c2cc(Cl)ccc2c(O)c1-c1cccc(Oc2ccccc2)c1 [Compound 691, L-701,324] | 90 | – |
| NCCCCCCCCCCN [Compound 462, 1,10-Diaminodecane] | 99 | – |
| O=c1[nH]cc(F)c(=O)[nH]1 [Compound 526, 5-Fluorouracil] | 156 | – |
| N#CC(C#N)=Cc1ccc([N+](=O)[O-])c(O)c1 [Compound 1216, Tyrphostin AG 126] | 100 | – |
| C[C@H]1O[C@@H](n2cc(F)c(=O)[nH]c2=O)[C@H](O)[C@@H]1O [Compound 534, 5-fluoro-5'-deoxyuridine] | 111 | – |
| Nc1ccc(S(=O)(=O)Nc2ccnn2-c2ccccc2)cc1 [Compound 1078, Sulfaphenazole] | 112 | – |
| Cl.Cn1ccc2cc3c(cc21)CCN3C(=O)Nc1cccnc1 [Compound 1141, SB 206553 hydrochloride] | 73 | – |

Same assay, conditions: 10 µM compound, 300 nM dopamine, 2 hr; hit = compound effect <20

| Compound effect (percent receptor signaling in presence of test compound, relative lux units relative to the SCH23390 control) | Structure (SMILES) |
| --- | --- |
| 94% | Cl.NCCCC(N)(C(=O)O)C(F)F (racemic) [Compound 467, DL-alpha-Difluoromethylornithine hydrochloride] |
| 94% | Cl.FC(F)(F)c1cc(CO[C@H]2CCCN[C@H]2c2ccccc2)cc(C(F)(F)F)c1 [Compound 732, L-733,060 hydrochloride] |
| 101% | COc1cc2c(CCNC(C)=O)c[nH]c2cc1O [Compound 574, 6-Hydroxymelatonin] |
| 107% | COc1ccc(CCNC[C@H](O)c2ccc(O)cc2)cc1OC [Compound 1072, R(-)-Denopamine] |
| 112% | C[C@@](Cc1ccc(O)c(O)c1)(NN)C(=O)O [Compound 335, S-(-)-Carbidopa] |
| 88% | COc1ccc(CCN(C)CCCC(C#N)(c2cc(OC)c(OC)c(OC)c2)C(C)C)cc1OC.Cl (racemic) [Compound 782, (±)-Methoxyverapamil hydrochloride] |
| 118% | Cl.NO [Compound 616, Hydroxylamine hydrochloride] |
| 104% | C#CC(N)CCC(=O)O (centres unmarked) [Compound 142, gamma-Acetylinic GABA] |
| 102% | O=C(O)c1cc(=O)c2c(Cl)cc(Cl)cc2[nH]1 [Compound 460, 5,7-Dichlorokynurenic acid] |

| Structure (SMILES) | Compound effect (percent receptor signaling in presence of test compound, relative lux units relative to the SCH23390 control) |
| --- | --- |
| NC(N)=NCc1cccc(I)c1.NC(N)=NCc1cccc(I)c1.O=S(=O)(O)O [Compound 665, m-Iodobenzylguanidine hemisulfate] | 96% |
| CC[C@@H]1C(=O)OC[C@@H]1Cc1cncn1C.Cl [Compound 959, (+)-Pilocarpine hydrochloride] | 104% |
